Assay results reported in patent US20160193206A1, “BET-PROTEIN-INHIBITING DIHYDROPYRIDOPYRAZINONES” (BAYER PHARMA AKTIENGESELLSCHAFT, priority 2012, published 2016).

What was measured:
MOLM-13 cell line = experiment: MOLM-13 cell proliferation assay (alamarBlue); type: cell-based; conditions: Homo sapiens, inhibition of proliferation of MOLM-13 cells (acute myeloid leukaemia), 96 hours incubation
Outline: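 MOLM-13 (human AML) cells were treated with compound dilutions for 96 h at 37 °C after overnight plating, and viability was read by alamarBlue fluorescence (ex 530/em 590 nm). Pre-treatment readings were subtracted from end-point readings, and IC50 was calculated relative to buffer-only controls.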

[1] = molecular target: T1, BRD4 bromo domain 1 [BRD4(1)] (Homo sapiens, UniProt O60885); experiment: BRD4(1)/acetylated peptide H4 binding assay (TR-FRET); conditions: inhibition of interaction between His6-tagged BRD4(1) (amino acids 67-152) and acetylated histone H4 peptide
T1 construct: N-terminally His6-tagged BRD4(1) (amino acids 67-152); made in house; host or cells: E. coli
Outline: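 IC50 came from a 4-parameter fit of the 665/620 nm emission ratio, normalised to DMSO and no-protein controls. His6-tagged BRD4(1) residues 67-152 (typically 10 nM final) was preincubated 10 min with compound (0.1 nM to 20 μM, duplicates), then exposed to Ac-H4-biotin peptide at 22 °C for 1 h and 4 °C for at least 3 h.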

[2] = molecular target: T2, BRD4 bromo domain 2 [BRD4(2)] (Homo sapiens, UniProt O60885); experiment: BRD4(2)/acetylated peptide H4 binding assay (TR-FRET); conditions: inhibition of interaction between His6-tagged BRD4(2) (amino acids 357-445) and acetylated histone H4 peptide
T2 construct: N-terminally His6-tagged BRD4(2) (amino acids 357-445); made in house; host or cells: E. coli
Outline: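 Compounds (0.1 nM to 20 μM, 11 points, duplicates) preincubated 10 min at 22 °C with 100 nM His6-tagged BRD4(2) residues 357-445, then Ac-H4-biotin peptide added; incubated 1 h at 22 °C and 3 h-overnight at 4 °C. Eu/XL665 emission ratio normalised to DMSO and no-protein controls; 4-parameter IC50.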

COc1cc(C(=O)NC2CN(C)C2)ccc1Nc1ccc2c(n1)N(C1CCOCC1)[C@H](C)C(=O)N2C [Example 55, 4-{[(3R)-1,3-Dimethyl-2-oxo-4-(tetrahydro-2H-pyran-4-yl)-1,2,3,4-tetrahydropyrido[2,3-b]pyrazin-6-yl]amino}-3-methoxy-N-(1-methylazetidin-3-yl)benzamide] was tested, and the IC50 (MOLM-13 cell line) was 668 nM, the IC50 [1] was 215 nM and the IC50 [2] was 128 nM.

C[C@@H]1C(=O)N(C)c2ccc(Nc3ccc(C(=O)N[C@H]4CC[C@H](N5CCN(CC6CC6)CC5)CC4)cc3)nc2N1C1CCOCC1 [Example 57, N-{trans-4-[4-(Cyclopropylmethyl)piper-azin-1-yl]cyclohexyl}-4-{[(3R)-1,3-dimethyl-2-oxo-4-(tetrahydro-2H-pyran-4-yl)-1,2,3,4-tetrahydropyrido[2,3-b]pyrazin-6-yl]amino}benzamide] showed an IC50 (MOLM-13 cell line) of 366 nM, an IC50 [1] of 139 nM and an IC50 [2] of 156 nM.

C[C@@H]1C(=O)N(C)c2ccc(Nc3ccc(C(=O)NC4CCN(C)CC4)cc3)nc2N1C1CCOCC1 [Example 58, 4-{[(3R)-1,3-Dimethyl-2-oxo-4-(tetrahydro-2H-pyran-4-yl)-1,2,3,4-tetrahydropyrido[2,3-b]pyrazin-6-yl]amino}-N-(1-methylpiperidin-4-yl)benzamide] showed an IC50 (MOLM-13 cell line) of 339 nM, an IC50 [1] of 111 nM and an IC50 [2] of 134 nM.

Work on COc1cc(C(=O)NCCc2cccnc2)ccc1Nc1ccc2c(n1)N(C1CCOCC1)[C@H](C)C(=O)N2C [Example 61, 4-{[(3R)-1,3-Dimethyl-2-oxo-4-(tetrahydro-2H-pyran-4-yl)-1,2,3,4-tetrahydropyrido[2,3-b]pyrazin-6-yl]amino}-3-methoxy-N-[2-(pyridin-3-yl)ethyl]benzamide] yielded an IC50 (MOLM-13 cell line) of 407 nM, an IC50 [1] of 172 nM and an IC50 [2] of 110 nM.

In the case of COc1cc(C(=O)NC2CCC(N3CCC(F)(F)CC3)CC2)ccc1Nc1ccc2c(n1)N(C1CCOCC1)[C@H](C)C(=O)N2C (stereo partly drawn) [Example 62, N-[4-(4,4-Difluoropiperidin-1-yl)cyclohexyl]-4-{[(3R)-1,3-dimethyl-2-oxo-4-(tetrahydro-2H-pyran-4-yl)-1,2,3,4-tetrahydropyrido[2,3-b]pyrazin-6-yl]amino}-3-methoxybenzamide], the IC50 (MOLM-13 cell line) is reported as 444 nM, the IC50 [1] is reported as 187 nM and the IC50 [2] is reported as 146 nM.

With COc1cc(C(=O)NCCN2CCN(C)CC2)ccc1Nc1ccc2c(n1)N(C1CCOCC1)[C@H](C)C(=O)N2C [Example 64, 4-{[(3R)-1,3-Dimethyl-2-oxo-4-(tetrahydro-2H-pyran-4-yl)-1,2,3,4-tetrahydropyrido[2,3-b]pyrazin-6-yl]amino}-3-methoxy-N-[2-(4-methylpiperazin-1-yl)ethyl]benzamide] the IC50 (MOLM-13 cell line) was 310 nM, the IC50 [1] was 179 nM and the IC50 [2] was 81 nM.

C[C@@H]1C(=O)N(C)c2ccc(Nc3ccc(C(=O)NCCN4CCN(C)CC4)cc3)nc2N1C1CCCCC1 [Example 66, 4-{[(3R)-4-Cyclohexyl-1,3-dimethyl-2-oxo-1,2,3,4-tetrahydropyrido[2,3-b]pyrazin-6-yl]amino}-N-[2-(4-methylpiperazin-1-yl)ethyl]benzamide] showed an IC50 (MOLM-13 cell line) of 270 nM, an IC50 [1] of 140 nM and an IC50 [2] of 154 nM.

In the case of COc1cc(C(=O)NCCN2CCN(C)CC2)ccc1Nc1ccc2c(n1)N(C1CCCCC1)[C@H](C)C(=O)N2C [Example 67, 4-{[(3R)-4-Cyclohexyl-1,3-dimethyl-2-oxo-1,2,3,4-tetrahydropyrido[2,3-b]pyrazin-6-yl]amino}-3-methoxy-N-[2-(4-methylpiperazin-1-yl)ethyl]benzamide], the IC50 (MOLM-13 cell line) is reported as 265 nM, the IC50 [1] is reported as 178 nM and the IC50 [2] is reported as 110 nM.

C[C@@H]1C(=O)N(C)c2ccc(Nc3ccc(C(=O)N[C@H]4CC[C@H](N5CCN(CC6CC6)CC5)CC4)cc3)nc2N1C1CCCCC1 [Example 68, 4-{[(3R)-4-Cyclohexyl-1,3-dimethyl-2-oxo-1,2,3,4-tetrahydropyrido[2,3-b]pyrazin-6-yl]amino}-N-{trans-4-[4-(cyclopropylmethyl)piperazin-1-yl]cyclohexyl}benzamide] gave an IC50 (MOLM-13 cell line) of 548 nM, an IC50 [1] of 263 nM and an IC50 [2] of 310 nM.

In the case of C[C@@H]1C(=O)N(C)c2ccc(Nc3ccc(C(=O)N4CC5(COC5)C4)cc3)nc2N1C1CCCCC1 [Example 69, (3R)-4-Cyclohexyl-1,3-dimethyl-6-{[4-(2-oxa-6-azaspiro[3.3]hept-6-ylcarbonyl)phenyl]amino}-3,4-dihydropyrido[2,3-b]pyrazin-2(1H)-one], the IC50 (MOLM-13 cell line) is reported as 358 nM, the IC50 [1] is reported as 164 nM and the IC50 [2] is reported as 89 nM.

Molecule COc1cc(C(=O)N[C@H]2CC[C@H](N3CCN(CC4CC4)CC3)CC2)ccc1Nc1ccc2c(n1)N(C1CCCCC1)[C@H](C)C(=O)N2C [Example 70, 4-{[(3R)-4-Cyclohexyl-1,3-dimethyl-2-oxo-1,2,3,4-tetrahydropyrido[2,3-b]pyrazin-6-yl]amino}-N-{trans-4-[4-(cyclopropylmethyl)piperazin-1-yl]cyclohexyl}-3-methoxybenzamide] has an IC50 (MOLM-13 cell line) of 233 nM, an IC50 [1] of 239 nM and an IC50 [2] of 120 nM.

COc1cc(C(=O)NC2CN(C)C2)ccc1Nc1ccc2c(n1)N(C1CCCCC1)[C@H](C)C(=O)N2C [Example 72, 4-{[(3R)-4-Cyclohexyl-1,3-dimethyl-2-oxo-1,2,3,4-tetrahydropyrido[2,3-b]pyrazin-6-yl]amino}-3-methoxy-N-(1-methylazetidin-3-yl)benzamide] gave an IC50 (MOLM-13 cell line) of 254 nM, an IC50 [1] of 131 nM and an IC50 [2] of 118 nM.

C[C@@H]1C(=O)N(C)c2ccc(Nc3ccc(C(=O)N4CC5(CCS5(=O)=O)C4)cc3)nc2N1Cc1ccccc1 [Example 75, (3R)-4-Benzyl-6-({4-[(1,1-dioxido-1-thia-6-azaspiro[3.3]hept-6-yl)carbonyl]phenyl}amino)-1,3-dimethyl-3,4-dihydropyrido[2,3-b]pyrazin-2(1H)-one] showed an IC50 (MOLM-13 cell line) of 350 nM, an IC50 [1] of 149 nM and an IC50 [2] of 82 nM.

Work on COc1cc(C(=O)NC2CCN(C(C)=O)CC2)ccc1Nc1ccc2c(n1)N(Cc1ccccc1)[C@H](C)C(=O)N2C [Example 77, N-(1-Acetylpiperidin-4-yl)-4-{[(3R)-4-benzyl-1,3-dimethyl-2-oxo-1,2,3,4-tetrahydropyrido[2,3-b]pyrazin-6-yl]amino}-3-methoxybenzamide] yielded an IC50 (MOLM-13 cell line) of 242 nM, an IC50 [1] of 55 nM and an IC50 [2] of 103 nM.

CC(=O)N1CCC(NC(=O)c2ccc(Nc3ccc4c(n3)N(Cc3ccccc3)[C@H](C)C(=O)N4C)cc2)CC1 [Example 78, N-(1-Acetylpiperidin-4-yl)-4-{[(3R)-4-benzyl-1,3-dimethyl-2-oxo-1,2,3,4-tetrahydropyrido[2,3-b]pyrazin-6-yl]amino}benzamide] showed an IC50 (MOLM-13 cell line) of 243 nM, an IC50 [1] of 153 nM and an IC50 [2] of 111 nM.

COc1cc(C(=O)NC2CCC(O)CC2)ccc1Nc1ccc2c(n1)N(Cc1ccccc1)[C@H](C)C(=O)N2C (stereo partly drawn) [Example 79, 4-{[(3R)-4-Benzyl-1,3-dimethyl-2-oxo-1,2,3,4-tetrahydropyrido[2,3-b]pyrazin-6-yl]amino}-N-(4-hydroxycyclohexyl)-3-methoxybenzamide] was tested, and the IC50 (MOLM-13 cell line) was 282 nM, the IC50 [1] was 120 nM and the IC50 [2] was 51 nM.

Work on COc1cc(C(=O)N2CCN(C(C)C)CC2)ccc1Nc1ccc2c(n1)N(Cc1ccccc1)[C@H](C)C(=O)N2C [Example 80, (3R)-4-Benzyl-6-[(2-methoxy-4-{[4-(propan-2-yl)piperazin-1-yl]carbonyl}phenyl)amino]-1,3-dimethyl-3,4-dihydro pyrido[2,3-b]pyrazin-2(1H)-one] yielded an IC50 (MOLM-13 cell line) of 170 nM, an IC50 [1] of 137 nM and an IC50 [2] of 138 nM.

With C[C@@H]1C(=O)N(C)c2ccc(Nc3ccc(C(=O)NCCN4CCN(C)CC4)cc3)nc2N1Cc1ccccc1 [Example 81, 4-{[(3R)-4-Benzyl-1,3-dimethyl-2-oxo-1,2,3,4-tetrahydropyrido[2,3-b]pyrazin-6-yl]amino}-N-[2-(4-methylpiperazin-1-yl)ethyl]benzamide] the IC50 (MOLM-13 cell line) was 96 nM, the IC50 [1] was 89 nM and the IC50 [2] was 23 nM.

COc1cc(C(=O)NCCN2CCN(C)CC2)ccc1Nc1ccc2c(n1)N(Cc1ccccc1)[C@H](C)C(=O)N2C [Example 82, 4-{[(3R)-4-Benzyl-1,3-dimethyl-2-oxo-1,2,3,4-tetrahydropyrido[2,3-b]pyrazin-6-yl]amino}-3-methoxy-N-[2-(4-methylpiperazin-1-yl)ethyl]benzamide] showed an IC50 (MOLM-13 cell line) of 131 nM, an IC50 [1] of 40 nM and an IC50 [2] of 48 nM.

Molecule COc1cc(C(=O)N2CC3(COC3)C2)ccc1Nc1ccc2c(n1)N(Cc1ccccc1)[C@H](C)C(=O)N2C [Example 83, (3R)-4-Benzyl-6-{[2-methoxy-4-(2-oxa-6-azaspiro[3.3]hept-6-ylcarbonyl)phenyl]amino}-1,3-dimethyl-3,4-dihydropyrido[2,3-b]pyrazin-2(1H)-one] has an IC50 (MOLM-13 cell line) of 122 nM, an IC50 [1] of 133 nM and an IC50 [2] of 61 nM.

COc1cc(C(=O)NCCN2CCN(C)CC2)ccc1Nc1ccc2c(n1)N(C1CCCCCC1)[C@H](C)C(=O)N2C [Example 91, 4-{[(3R)-4-Cycloheptyl-1,3-dimethyl-2-oxo-1,2,3,4-tetrahydropyrido[2,3-b]pyrazin-6-yl]amino}-3-methoxy-N-[2-(4-methylpiperazin-1-yl)ethyl]benzamide] showed an IC50 (MOLM-13 cell line) of 353 nM, an IC50 [1] of 154 nM and an IC50 [2] of 135 nM.
